In patent US8129371B2, “Thienopyrimidine and pyrazolopyrimidine compounds and their use as mTOR kinase and PI3 kinase inhibitors” (Wyeth LLC, priority 2007, dated 2012) one finds IC50 data, which are given here for 7 compounds.

Test [1] deals with T1, PI3K (Homo sapiens, UniProt P48736).
T1 construct: PI3 Kinase γ IC50; other: PI3 Kinase γ; other: PI3 Kinase γ isoform, fluorescence polarization
Put plainly: Fluorescence polarization assay for PI3K. Format: biochemical. The note with it: PI3 Kinase γ; read-out: PI3 Kinase γ IC50. In a few lines: (§1)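 PI3K was preincubated with compound (final DMSO 1%), and the reaction was started with PIP2/ATP substrate and run 30–60 min. It was stopped with a detector mix giving 10 nM red probe and 70 nM GST-GRP.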
(Polarisation of emitted light reports the rotation of a fluorescent probe.)

Test [2] concerns the target T2, PI3K (Homo sapiens, UniProt P42336).
T2 construct: PI3 Kinase α IC50; other: PI3 Kinase α; other: PI3 Kinase α isoform, fluorescence polarization
Put plainly: Fluorescence polarization assay for PI3K. The following applies: PI3 Kinase α; read-out: PI3 Kinase α IC50. It is filed as biochemical. In a few lines:
as §1

In a further test the test system is prostate line LNCap. Put plainly: In vitro cell culture growth assay (MTS), LNCap. Format: cell-based. The note with it: Homo sapiens, LNCaP, 72 h, LNCap cells, three days after drug treatment. In short, it runs like this:
(§2)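 Cells were plated and, one day later, treated with inhibitors. Three days after treatment, viable cell density was measured by MTS dye conversion, read as absorbance at 490 nm. Effects are expressed as percent of control growth versus vehicle-treated cells on the same plate.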

A further test has as its system breast line MDA468. Put plainly: In vitro cell culture growth assay (MTS), MDA468. Format: cell-based. The note with it: Homo sapiens, 72 h, MDA468 cells, three days after drug treatment. In a few lines: as §2
The target of the next test is T3, Human mTOR (FLAG-TOR) (Homo sapiens, UniProt P42345).
T3 construct: FLAG
Put plainly: Human mTOR kinase assay with purified enzyme, DELFIA format. Format: biochemical. In short, it runs like this:
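Purified FLAG-mTOR in HEPES pH 7.4 buffer with 10 mM MnCl2 was preincubated with inhibitor and reacted 2 h at room temperature with His6-S6K substrate, then stopped with EDTA/EGTA. Phospho-T389 S6K detected by DELFIA with Eu-labelled antibody (40 ng/mL) after plate capture; inhibition computed from signal.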

T1 sequence (P48736 whole entry, canonical isoform): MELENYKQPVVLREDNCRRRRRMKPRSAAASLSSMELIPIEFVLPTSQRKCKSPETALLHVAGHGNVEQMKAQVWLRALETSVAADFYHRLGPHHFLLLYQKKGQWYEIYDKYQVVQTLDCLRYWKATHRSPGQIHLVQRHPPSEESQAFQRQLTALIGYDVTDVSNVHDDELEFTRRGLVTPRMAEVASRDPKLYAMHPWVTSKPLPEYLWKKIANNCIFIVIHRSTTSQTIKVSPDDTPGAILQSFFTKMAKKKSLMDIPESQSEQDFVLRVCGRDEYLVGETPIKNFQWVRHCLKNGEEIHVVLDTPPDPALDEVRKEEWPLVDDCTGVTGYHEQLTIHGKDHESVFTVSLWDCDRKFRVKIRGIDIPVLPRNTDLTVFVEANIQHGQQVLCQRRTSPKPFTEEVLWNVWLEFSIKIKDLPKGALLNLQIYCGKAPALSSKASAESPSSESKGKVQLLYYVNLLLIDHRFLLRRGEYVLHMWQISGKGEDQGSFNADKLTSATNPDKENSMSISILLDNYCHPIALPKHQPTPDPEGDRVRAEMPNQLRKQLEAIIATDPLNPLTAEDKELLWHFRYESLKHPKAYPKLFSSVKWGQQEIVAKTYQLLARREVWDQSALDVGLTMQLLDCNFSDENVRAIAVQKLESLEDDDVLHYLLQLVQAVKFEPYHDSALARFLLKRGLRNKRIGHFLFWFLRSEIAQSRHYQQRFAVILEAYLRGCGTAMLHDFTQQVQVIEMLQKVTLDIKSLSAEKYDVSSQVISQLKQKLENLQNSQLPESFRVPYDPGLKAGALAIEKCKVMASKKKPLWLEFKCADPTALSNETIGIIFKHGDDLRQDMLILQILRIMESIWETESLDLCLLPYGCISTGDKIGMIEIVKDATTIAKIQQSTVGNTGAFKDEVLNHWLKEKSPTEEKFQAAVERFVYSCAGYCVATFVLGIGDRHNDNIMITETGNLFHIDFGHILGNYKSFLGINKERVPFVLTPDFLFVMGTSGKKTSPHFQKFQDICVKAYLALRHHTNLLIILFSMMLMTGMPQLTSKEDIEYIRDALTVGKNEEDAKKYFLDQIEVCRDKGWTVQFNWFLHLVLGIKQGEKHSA
T2 sequence (P42336 whole entry, canonical isoform): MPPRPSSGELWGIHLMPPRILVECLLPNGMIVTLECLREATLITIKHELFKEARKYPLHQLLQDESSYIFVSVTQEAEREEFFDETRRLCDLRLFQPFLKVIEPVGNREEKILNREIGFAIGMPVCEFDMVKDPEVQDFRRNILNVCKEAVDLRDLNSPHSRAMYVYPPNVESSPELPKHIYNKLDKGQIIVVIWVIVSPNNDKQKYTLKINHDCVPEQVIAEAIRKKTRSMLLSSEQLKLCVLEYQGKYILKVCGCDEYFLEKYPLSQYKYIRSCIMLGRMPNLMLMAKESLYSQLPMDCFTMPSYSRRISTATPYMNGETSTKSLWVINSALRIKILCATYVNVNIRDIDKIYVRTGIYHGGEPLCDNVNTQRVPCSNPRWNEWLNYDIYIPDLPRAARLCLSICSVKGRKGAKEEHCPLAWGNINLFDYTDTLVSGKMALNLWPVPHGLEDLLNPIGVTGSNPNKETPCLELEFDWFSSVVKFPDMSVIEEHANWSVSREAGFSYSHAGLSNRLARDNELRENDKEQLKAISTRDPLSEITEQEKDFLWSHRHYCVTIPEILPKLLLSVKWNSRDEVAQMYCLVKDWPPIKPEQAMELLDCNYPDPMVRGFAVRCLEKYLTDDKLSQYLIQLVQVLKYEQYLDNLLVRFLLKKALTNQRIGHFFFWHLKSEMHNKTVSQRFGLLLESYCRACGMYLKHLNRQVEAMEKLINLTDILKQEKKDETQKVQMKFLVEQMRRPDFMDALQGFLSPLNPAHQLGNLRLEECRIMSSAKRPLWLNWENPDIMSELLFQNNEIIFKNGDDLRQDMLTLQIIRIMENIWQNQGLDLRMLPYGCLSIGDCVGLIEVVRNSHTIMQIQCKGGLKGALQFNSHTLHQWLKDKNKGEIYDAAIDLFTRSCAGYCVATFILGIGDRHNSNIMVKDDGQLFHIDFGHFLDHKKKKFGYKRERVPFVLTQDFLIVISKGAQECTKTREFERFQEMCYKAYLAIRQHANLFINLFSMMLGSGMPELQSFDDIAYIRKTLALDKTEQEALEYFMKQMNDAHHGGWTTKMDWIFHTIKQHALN

What is called IC50 is the concentration needed to halve the response being measured. As for `CCOC(=O)N1CCC(n2ncc3c(N4CC5CCC(C4)O5)nc(-c4ccc(NC(=O)Nc5ccccc5)cc4)nc32)CC1` [Example 33, ethyl 4-[4-(8-oxa-3-azabicyclo[3.2.1]oct-3-yl)-6-{4-[(phenylcarbamoyl)amino]phenyl}-1H-pyrazolo[3,4-d]pyrimidin-1-yl]piperidine-1-carboxylate], the half-inhibitory concentration (IC50) came to 4.28 µM on PI3K [1]; 0.215 µM on PI3K [2]; 0.0009 µM in the test with prostate line LNCap; 0.018 µM in the test with breast line MDA468; 0.00036 µM at Human mTOR (FLAG-TOR).
As for `CCOC(=O)N1CCC(n2ncc3c(N4CC5CCC(C4)O5)nc(-c4ccc(NC(=O)Nc5cccnc5)cc4)nc32)CC1` [Example 34, ethyl 4-[4-(8-oxa-3-azabicyclo[3.2.1]oct-3-yl)-6-{4-[(pyridin-3-ylcarbamoyl)amino]phenyl}-1H-pyrazolo[3,4-d]pyrimidin-1-yl]piperidine-1-carboxylate], the IC50 was 2.61 µM at PI3K [1]; 0.314 µM on PI3K [2]; under 0.0008 µM with prostate line LNCap; 0.025 µM in the test on breast line MDA468; 0.00012 µM at Human mTOR (FLAG-TOR).
Turning to `CCOC(=O)N1CCC(n2ncc3c(N4CC5CCC(C4)O5)nc(-c4ccc(NC(=O)Nc5ccncc5)cc4)nc32)CC1` [Example 35, ethyl 4-[4-(8-oxa-3-azabicyclo[3.2.1]oct-3-yl)-6-{4-[(pyridin-4-ylcarbamoyl)amino]phenyl}-1H-pyrazolo[3,4-d]pyrimidin-1-yl]piperidine-1-carboxylate], the concentration for half-maximal inhibition (IC50) is 1.8 µM on PI3K [1]; 0.291 µM on PI3K [2]; under 0.0008 µM with prostate line LNCap; 0.009 µM in the test with breast line MDA468; 0.00034 µM against Human mTOR (FLAG-TOR).
For `CCOC(=O)N1CCC(n2ncc3c(N4CC5CCC(C4)O5)nc(-c4ccc(NC(=O)NC5CCN(C)CC5)cc4)nc32)CC1` [Example 36, ethyl 4-[6-(4-{[(1-methylpiperidin-4-yl)carbamoyl]amino}phenyl)-4-(8-oxa-3-azabicyclo[3.2.1]oct-3-yl)-1H-pyrazolo[3,4-d]pyrimidin-1-yl]piperidine-1-carboxylate] the same measures were 7.62 µM, 6.21 µM, 1.2 µM, 4.5 µM and 0.026 µM.
In the case of `CCOC(=O)N1CCC(n2ncc3c(N4CC5CCC(C4)O5)nc(-c4ccc(NC(=O)NC5CCN(C(=O)OC(C)(C)C)CC5)cc4)nc32)CC1` [Example 37, ethyl 4-{6-[4-({[1-(tert-butoxycarbonyl)piperidin-4-yl]carbamoyl}amino)phenyl]-4-(8-oxa-3-azabicyclo[3.2.1]oct-3-yl)-1H-pyrazolo[3,4-d]pyrimidin-1-yl}piperidine-1-carboxylate], the IC50 was 7.39 µM on PI3K [1]; 8.62 µM at PI3K [2]; 1 µM with prostate line LNCap; over 60 µM in the test on breast line MDA468; 0.037 µM on Human mTOR (FLAG-TOR).
`CCOC(=O)N1CCC(n2ncc3c(N4CC5CCC(C4)O5)nc(-c4ccc(NC(=O)NCCCNC)cc4)nc32)CC1` [Example 38, ethyl 4-{6-[4-({[3-(methylamino)propyl]carbamoyl}amino)phenyl]-4-(8-oxa-3-azabicyclo[3.2.1]oct-3-yl)-1H-pyrazolo[3,4-d]pyrimidin-1-yl}piperidine-1-carboxylate]: the IC50 at PI3K [1] stood at 11 µM; on PI3K [2], 1.76 µM; in the test on prostate line LNCap it was 4.4 µM; in the test on breast line MDA468 it was 7 µM; against Human mTOR (FLAG-TOR) it was 0.0053 µM.
For `CCOC(=O)N1CCC(n2ncc3c(N4CC5CCC(C4)O5)nc(-c4ccc(NC(=O)Nc5ccn[nH]5)cc4)nc32)CC1` [Example 39, ethyl 4-[4-(8-oxa-3-azabicyclo[3.2.1]oct-3-yl)-6-{4-[(1H-pyrazol-5-ylcarbamoyl)amino]phenyl}-1H-pyrazolo[3,4-d]pyrimidin-1-yl]piperidine-1-carboxylate] the same measures were 8.88 µM, 5.7 µM, 2.6 µM, 8 µM and 0.096 µM.
